# Biological target: b-Raf (V600E) (Homo sapiens (Human), UniProt P15056, V600E)
# Conditions: read-out: b-Raf IC-50
# Sequence of b-Raf (V600E) (P15056 whole entry V600E): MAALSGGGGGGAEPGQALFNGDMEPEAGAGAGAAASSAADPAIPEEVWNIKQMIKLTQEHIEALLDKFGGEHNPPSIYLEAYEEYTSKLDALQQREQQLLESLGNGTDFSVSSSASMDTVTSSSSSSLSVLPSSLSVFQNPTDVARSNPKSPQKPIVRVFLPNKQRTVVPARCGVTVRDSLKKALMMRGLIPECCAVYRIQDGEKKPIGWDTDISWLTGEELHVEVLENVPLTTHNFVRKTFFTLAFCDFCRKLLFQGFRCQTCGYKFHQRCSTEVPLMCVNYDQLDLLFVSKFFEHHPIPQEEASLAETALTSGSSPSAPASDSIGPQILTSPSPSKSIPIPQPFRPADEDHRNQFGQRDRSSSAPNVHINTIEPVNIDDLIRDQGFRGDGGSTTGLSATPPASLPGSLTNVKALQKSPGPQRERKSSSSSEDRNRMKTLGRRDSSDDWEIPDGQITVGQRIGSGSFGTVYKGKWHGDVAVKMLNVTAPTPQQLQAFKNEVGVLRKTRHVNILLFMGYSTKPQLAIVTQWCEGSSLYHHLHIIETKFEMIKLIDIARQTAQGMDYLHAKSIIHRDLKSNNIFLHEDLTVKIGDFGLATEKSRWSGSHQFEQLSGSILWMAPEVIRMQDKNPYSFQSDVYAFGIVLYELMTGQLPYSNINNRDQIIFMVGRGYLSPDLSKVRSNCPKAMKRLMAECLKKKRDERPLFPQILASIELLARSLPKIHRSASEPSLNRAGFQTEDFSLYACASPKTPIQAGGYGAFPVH
row,Compound,IC50
1,"CCOc1nnc(-c2cc(NC(=O)c3ccc(CNC)c(C(F)(F)F)c3)ccc2C)cc1N1CCOCC1 [Example 574, N-(3-(6-ethoxy-5-morpholinopyridazin-3-yl)-4-methylphenyl)-4-((methylamino)methyl)-3-(trifluoromethyl)benzamide]",2.2 nM

# Same assay, conditions: read-out: b-Raf IC-50; AlphaScreen, 60 min pre-incubation, 3 hours reaction
row,IC50,Compound
1,200 nM,"Cc1ncc(NC(=O)c2ccnc(C(C)(C)C#N)c2)cc1-c1cc(N2CCOCC2)nc(N2C(=O)OC[C@@H]2C)n1 [Example 784, (S)-2-(2-cyanopropan-2-yl)-N-(6-methyl-5-(2-(4-methyl-2-oxooxazolidin-3-yl)-6-morpholinopyrimidin-4-yl)pyridin-3-yl)isonicotinamide]"
2,2.9 nM,"Cc1ccc(NC(=O)c2cnnc(C3CC3)c2)cc1-c1cc(N2CCOCC2)c(=O)n(C)n1 [Example 644, 6-cyclopropyl-N-(4-methyl-3-(1-methyl-5-morpholino-6-oxo-1,6-dihydropyridazin-3-yl)-phenyl)pyridazine-4-carboxamide]"
3,0.9 nM,"CCOc1nc(-c2cc(NC(=O)c3ccnc(C(C)(F)F)c3)ccc2C)cc(N2CCOCC2)n1 [Example 761, 2-(1,1-difluoroethyl)-N-(3-(2-ethoxy-6-morpholinopyrimidin-4-yl)-4-methylphenyl)isonicotinamide]"
4,83.7 nM,"Cc1ccc(NC(=O)c2cccc(C(F)(F)F)c2)cc1-c1cc(N2CCOCC2=O)c(=O)n(C)c1 [Example 451, N-(4-methyl-3-(1-methyl-6-oxo-5-(3-oxomorpholino)-1,6-dihydropyridin-3-yl)phenyl)-3-(trifluoromethyl)benzamide]"
5,1.1 nM,Cc1ccc(NC(=O)c2ccnc(S(C)(=O)=O)c2)cc1-c1cc(N2CCOCC2)n2nccc2n1 [Example 806]
6,1.4 nM,"Cc1ccc(NC(=O)c2ccnc(C(C)(C)C#N)c2)cc1-c1cc(N2CCOCC2)nc(NC(C)(C)CO)n1 [Example 751, 2-(2-cyanopropan-2-yl)-N-(3-(2-((1-hydroxy-2-methylpropan-2-yl)amino)-6-morpholinopyrimidin-4-yl)-4-methylphenyl)isonicotinamide]"
7,2.1 nM,"Cc1ccc(NC(=O)c2ccnc(C(F)(F)F)c2)cc1-c1cc(N2CCOCC2)nc(OC2CNC2)n1 [Example 780, N-(3-(2-(azetidin-3-yloxy)-6-morpholinopyrimidin-4-yl)-4-methylphenyl)-2-(trifluoromethyl)isonicotinamide]"
8,2.3 nM,"Cc1ccc(NC(=O)c2ccnc(C(C)C)c2)cc1-c1cc(N2CCOCC2)nc(OC2CNC2)n1 [Example 778, N-(3-(2-(azetidin-3-yloxy)-6-morpholinopyrimidin-4-yl)-4-methylphenyl)-2-isopropylisonicotinamide]"
9,1.3 nM,"CCNc1nc(-c2cc(NC(=O)c3cc(C(F)(F)F)c(=O)n(CC)c3)ccc2C)cc(N2CCOCC2)n1 [Example 703, 1-ethyl-N-(3-(2-(ethylamino)-6-morpholinopyrimidin-4-yl)-4-methylphenyl)-6-oxo-5-(trifluoromethyl)-1,6-dihydropyridine-3-carboxamide]"
10,3.1 nM,"Cc1ccc(NC(=O)c2cccc(C(F)(F)F)c2)cc1-c1nc2c(c(N3CCOCC3)n1)CNC2 [Example 836, N-(4-methyl-3-(4-morpholino-6,7-dihydro-5H-pyrrolo[3,4-d]pyrimidin-2-yl)phenyl)-3-(trifluoromethyl)benzamide]"
11,34.8 nM,"CCNc1nc(-c2cc(NC(=O)c3ccnc(C(C)(C)O)c3)cnc2C)cc(N2CCOCC2)n1 [Example 723, N-(5-(2-(ethylamino)-6-morpholinopyrimidin-4-yl)-6-methylpyridin-3-yl)-2-(2-hydroxypropan-2-yl)isonicotinamide]"
12,1.3 nM,"Cc1ccc(NC(=O)c2ccnc(C(C)C)c2)cc1-c1cc(N2CCOCC2)c2nccn2n1 [Example 842, 2-isopropyl-N-(4-methyl-3-(8-morpholinoimidazo[1,2-b]pyridazin-6-yl)phenyl)isonicotinamide]"

row,Compound,IC50
1,"Cc1ccc(NC(=O)c2ccnc(C(C)(C)C#N)c2)cc1-c1cc(N2CC3CC(C2)O3)c(=O)n(C)c1 [Example 465, N-(3-(5-(6-oxa-3-azabicyclo[3.1.1]heptan-3-yl)-1-methyl-6-oxo-1,6-dihydropyridin-3-yl)-4-methylphenyl)-2-(2-cyanopropan-2-yl)isonicotinamide]",100 nM

# Same assay, conditions: read-out: b-Raf IC-50; AlphaScreen, 60 min pre-incubation, reaction 3 hours at room temperature
row,IC50,Compound
1,8.85 nM,"Cc1ncc(NC(=O)c2ccnc(C(C)(F)F)c2)cc1-c1cc(N2CCOCC2)c(S(C)(=O)=O)nn1 [Example 920, 2-(1,1-difluoroethyl)-N-(6-methyl-5-(6-(methylsulfonyl)-5-morpholinopyridazin-3-yl)pyridin-3-yl)isonicotinamide]"
2,25000 nM,"O=C(Nc1c[nH]c(=O)c(-c2ccnc(N3CCOCC3)c2)c1)c1cccc(C(F)F)c1 [Example 1174, 3-(difluoromethyl)-N-(2′-morpholino-2-oxo-1,2-dihydro-[3,4′-bipyridin]-5-yl)benzamide]"
3,2.15 nM,"Cc1ccc(NC(=O)c2cnnc(C(C)(C)C#N)c2)cc1-c1cc(OC2CCOCC2)nc(N2CCOCC2)c1 [Example 1153, 6-(2-cyanopropan-2-yl)-N-(4-methyl-3-(2-morpholino-6-((tetrahydro-2H-pyran-4-yl)oxy)pyridin-4-yl)phenyl)pyridazine-4-carboxamide]"
4,2.04 nM,"Cc1ncc(NC(=O)c2cncc(C(F)(F)F)c2)cc1-c1cnc(OCC(F)F)c(N2CCOCC2)c1 [Example 935, N-(6′-(2,2-difluoroethoxy)-2-methyl-5′-morpholino-[3,3′-bipyridin]-5-yl)-5-(trifluoromethyl)nicotinamide]"
5,1.3 nM,"Cc1ncc(NC(=O)c2cc(C(F)(F)F)ccn2)cc1-c1cc(N2CCOCC2)c2nccn2n1 [Example 868, N-(6-methyl-5-(8-morpholinoimidazo[1,2-b]pyridazin-6-yl)pyridin-3-yl)-4-(trifluoromethyl)picolinamide]"
6,12.1 nM,"Cc1ncc(NC(=O)c2ccnc(S(C)(=O)=O)c2)cc1-c1cc(N2CCOCC2)nc(N2CCOCC2)c1 [Example 1124, N-(2-methyl-2′,6′-dimorpholino-[3,4′-bipyridin]-5-yl)-2-(methylsulfonyl)isonicotinamide]"
7,1.05 nM,"Cc1ccc(NC(=O)c2ccnc(C(C)(F)F)c2)cc1-c1cc(N2CCOCC2)c(S(C)(=O)=O)nn1 [Example 929, 2-(1,1-difluoroethyl)-N-(4-methyl-3-(6-(methylsulfonyl)-5-morpholinopyridazin-3-yl)phenyl)isonicotinamide]"
8,83.6 nM,"Cc1ncc(NC(=O)c2cnnc(C(F)(F)F)c2)cc1-c1cc(NCCO)nc(N2CCOCC2)c1F [Example 1004, N-(3′-fluoro-6′-((2-hydroxyethyl)amino)-2-methyl-2′-morpholino-[3,4′-bipyridin]-5-yl)-6-(trifluoromethyl)pyridazine-4-carboxamide]"

# Same assay, conditions: read-out: b-Raf IC-50; Table 2; AlphaScreen, 3 hours reaction
row,IC50,Compound
1,0.7 nM,"Cc1ccc(NC(=O)c2cccc(OC(F)(F)F)c2)cc1-c1cc(N2CCOCC2)nc(N2CCOCC2)n1 [Example 22, N-(3-(2,6-dimorpholinopyrimidin-4-yl)-4-methylphenyl)-3-(trifluoromethoxy)benzamide]"
2,1.3 nM,"CCOc1ncc(-c2cc(NC(=O)c3cc(C4CC4)on3)cnc2C)cc1N1CCOCC1 [Example 245, 5-cyclopropyl-N-(6′-ethoxy-2-methyl-5′-morpholino-[3,3′-bipyridin]-5-yl)isoxazole-3-carboxamide]"
3,2 nM,"CCC(F)(F)c1cc(C(=O)Nc2ccc(C)c(-c3cc(N4CCOCC4)c(=O)n(C)c3)c2)ccn1 [Example 341, 2-(1,1-difluoropropyl)-N-(4-methyl-3-(1-methyl-5-morpholino-6-oxo-1,6-dihydropyridin-3-yl)phenyl)isonicotinamide]"
4,6.3 nM,"Cc1ncc(NC(=O)c2ccnc(C(C)(C)C#N)c2)cc1-c1cnc(OC2CCOCC2)c(N2CCOCC2)c1 [Example 272, 2-(2-cyanopropan-2-yl)-N-(2-methyl-5′-morpholino-6′-((tetrahydro-2H-pyran-4-yl)oxy)-[3,3′-bipyridin]-5-yl)isonicotinamide]"
5,6.8 nM,"COc1ccc(C(=O)Nc2cnc(Cl)c(-c3cc(N4CCOCC4)c(=O)n(C)c3)c2)cc1C(F)(F)F [Example 408, N-(2-chloro-1′-methyl-5′-morpholino-6′-oxo-1′,6′-dihydro-[3,3-bipyridin]-5-yl)-4-methoxy-3-(trifluoromethyl)benzamide]"
6,3.7 nM,"Cc1ccc(C(=O)Nc2cccc(C(C)(C)C#N)c2)cc1-c1cc(N2CCOCC2)c(=O)n(C)c1 [Example 431, N-(3-(2-cyanopropan-2-yl)phenyl)-4-methyl-3-(1-methyl-5-morpholino-6-oxo-1,6-dihydropyridin-3-yl)benzamide]"
7,1.7 nM,"Cc1ccc(NC(=O)c2cccc(C(F)(F)F)c2)cc1-c1cc(N2CCOCC2)c(=O)n(C)n1 [Example 164, N-(4-methyl-3-(1-methyl-5-morpholino-6-oxo-1,6-dihydropyridazin-3-yl)phenyl)-3-(trifluoromethyl)benzamide]"
8,1 nM,"CCOc1ncc(-c2cc(NC(=O)c3cc(C(F)(F)F)c(=O)n(CC)c3)ccc2C)cc1N1CCOCC1 [Example 234, N-(3-(6-ethoxy-5-morpholinopyridin-3-yl)-4-methylphenyl)-1-ethyl-6-oxo-5-(trifluoromethyl)-1,6-dihydropyridine-3-carboxamide]"
9,3.5 nM,Cn1cc(-c2cc(NC(=O)c3ccnc(C(F)(F)F)c3)ccc2F)cc(N2CCOCC2)c1=O [Example 418]
10,2.4 nM,"Cc1ncc(NC(=O)c2cccc(C(F)(F)F)c2)cc1-c1cnc(OC(C)C)c(N2CCOCC2)c1 [Example 134, N-(6′-isopropoxy-2-methyl-5′-morpholino-[3,3′-bipyridin]-5-yl)-3-(trifluoromethyl)benzamide]"
11,1.3 nM,"Cc1ccc(NC(=O)c2cccc(C(F)(F)F)c2)cc1-c1cc(N2CCS(=O)(=O)CC2)nc(N2CCOCC2)n1 [Example 6, N-(3-(6-(1,1-dioxidothiomorpholino)-2-morpholinopyrimidin-4-yl)-4-methylphenyl)-3-(trifluoromethyl)benzamide]"

# — patent US9694016B2 (Novartis AG, priority 2013, dated 2017)
